Measurements as given in ChEMBL document CHEMBL5046315, “CRCM5484: A BET-BDII Selective Compound with Differential Anti-leukemic Drug Modulation” (J Med Chem, 2022).
Active and inactive are the calls of the source. The calls are words filed in the database; no cut-off is given here.

What was measured:
Type in all cases: functional, cell-based
[1] = system: Acute myeloid leukemic cell; assay: Potentiation of birinapant-induced antileukemic activity against patient derived mouse xenografted acute myeloid leukemic cells assessed as cell viability in absence of bone-marrow derived stromal cell-conditioned medium measured after 72 to 144 hrs by cell-titre glo luminescent assay; conditions: Homo sapiens, dose microM <=10, time lower […], time upper 144.0 hrs
CCRF-CEM [2] = assay: Potentiation of AraC-induced antileukemic activity against human CCRF-CEM cells at 4.3 uM in presence of bone-marrow derived stromal cell-conditioned medium
CCRF-CEM [3] = assay: Potentiation of azacitidine-induced antileukemic activity against human CCRF-CEM cells at 4.3 uM in presence of bone-marrow derived stromal cell-conditioned medium
CCRF-CEM [4] = assay: Potentiation of etoposide-induced antileukemic activity against human CCRF-CEM cells at 4.3 uM in presence of bone-marrow derived stromal cell-conditioned medium
CCRF-CEM [5] = assay: Potentiation of ruxolitinib-induced antileukemic activity against human CCRF-CEM cells at 4.3 uM in presence of bone-marrow derived stromal cell-conditioned medium
CCRF-CEM [6] = assay: Potentiation of SGI-1027-induced antileukemic activity against human CCRF-CEM cells at 4.3 uM in presence of bone-marrow derived stromal cell-conditioned medium
CCRF-CEM [7] = assay: Potentiation of SGI-110-induced antileukemic activity against human CCRF-CEM cells at 4.3 uM in presence of bone-marrow derived stromal cell-conditioned medium
CCRF-CEM [8] = assay: Potentiation of tipifarnib-induced antileukemic activity against human CCRF-CEM cells at 4.3 uM in presence of bone-marrow derived stromal cell-conditioned medium
CCRF-CEM [9] = assay: Potentiation of trametinib-induced antileukemic activity against human CCRF-CEM cells at 4.3 uM in presence of bone-marrow derived stromal cell-conditioned medium
U-937 [10] = assay: Potentiation of alisertib-induced antileukemic activity against human U-937 cells at 4.3 uM in presence of bone-marrow derived stromal cell-conditioned medium
U-937 [11] = assay: Potentiation of arsenic-induced antileukemic activity against human U-937 cells at 4.3 uM in presence of bone-marrow derived stromal cell-conditioned medium
U-937 [12] = assay: Potentiation of azacitidine-induced antileukemic activity against human U-937 at 4.3 uM in presence of bone-marrow derived stromal cell-conditioned medium
U-937 [13] = assay: Potentiation of carfilzomib-induced antileukemic activity against human U-937 cells at 4.3 uM in presence of bone-marrow derived stromal cell-conditioned medium
U-937 [14] = assay: Potentiation of GSK126-induced antileukemic activity against human U-937 cells at 4.3 uM in presence of bone-marrow derived stromal cell-conditioned medium
U-937 [15] = assay: Potentiation of GSK2879552-induced antileukemic activity against human U-937 cells at 4.3 uM in presence of bone-marrow derived stromal cell-conditioned medium
U-937 [16] = assay: Potentiation of nelarabine-induced antileukemic activity against human U-937 cells at 4.3 uM in presence of bone-marrow derived stromal cell-conditioned medium
U-937 [17] = assay: Potentiation of ponatinib-induced antileukemic activity against human U-937 cells at 4.3 uM in presence of bone-marrow derived stromal cell-conditioned medium
U-937 [18] = assay: Potentiation of sorafenib-induced antileukemic activity against human U-937 cells at 4.3 uM in presence of bone-marrow derived stromal cell-conditioned medium
MOLM-14 [19] = assay: Potentiation of birinapant-induced antileukemic activity against human MOLM-14 cells at 4.3 uM in presence of bone-marrow derived stromal cell-conditioned medium
MOLM-14 [20] = assay: Potentiation of gefitinib-induced antileukemic activity against human MOLM-14 cells at 4.3 uM in presence of bone-marrow derived stromal cell-conditioned medium
MOLM-14 [21] = assay: Potentiation of OTX015-induced antileukemic activity against human MOLM-14 cells at 4.3 uM in presence of bone-marrow derived stromal cell-conditioned medium
MOLM-14 [22] = assay: Potentiation of palbociclib-induced antileukemic activity against human MOLM-14 cells at 4.3 uM in presence of bone-marrow derived stromal cell-conditioned medium
MOLM-14 [23] = assay: Potentiation of tretinoin-induced antileukemic activity against human MOLM-14 cells at 4.3 uM in presence of bone-marrow derived stromal cell-conditioned medium
MOLM-14 [24] = assay: Potentiation of volasertib-induced antileukemic activity against human MOLM-14 cells at 4.3 uM in presence of bone-marrow derived stromal cell-conditioned medium

`CC(=O)N1CCc2c(sc3nc(SCC(=O)Nc4cccnc4C)n(Cc4ccco4)c(=O)c23)C1` was tested, and the Activity [1] was “Dose-Dependent Effect”, the Activity (CCRF-CEM [2]) was “inactive” and the Activity (CCRF-CEM [3]) was “inactive”. The Activity (CCRF-CEM [4]) was “inactive”, the Activity (CCRF-CEM [5]) was “inactive” and the Activity (CCRF-CEM [6]) was “inactive”. The Activity (CCRF-CEM [7]) was “inactive”, the Activity (CCRF-CEM [8]) was “inactive” and the Activity (CCRF-CEM [9]) was “inactive”. For the same molecule, the Activity (U-937 [10]) was “inactive”, the Activity (U-937 [11]) was “inactive” and the Activity (U-937 [12]) was “inactive”. The Activity (U-937 [13]) was “inactive”, the Activity (U-937 [14]) was “inactive” and the Activity (U-937 [15]) was “inactive”. The Activity (U-937 [16]) was “inactive”, the Activity (U-937 [17]) was “inactive” and the Activity (U-937 [18]) was “inactive”. The Activity (MOLM-14 [19]) was “inactive”, the Activity (MOLM-14 [20]) was “inactive” and the Activity (MOLM-14 [21]) was “inactive”. The Activity (MOLM-14 [22]) was “inactive”, the Activity (MOLM-14 [23]) was “inactive” and the Activity (MOLM-14 [24]) was “inactive”.
